# Experimental data as given in ChEMBL document CHEMBL1201862, “PubChem BioAssay data set” (2004).
#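 Step 1: Grow cells in 96-well plates. Step 2: Expose to compound for 48 hours at 5 concentrations. Step 3: Interpolate endpoints linearly; if unreached, use highest concentration. Abbreviation: GI50, concentration required for 50% inhibition of growth.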 Active and inactive are the calls of the source. Rule as the data show it: active = GI50 up to about 1.1 µM and inactive = higher.
# Columns and labels:
# Experiment in all cases: growth of human tumour cells (NCI), 48 h
# LOX IMVI = test system: LOX IMVI
# RXF 393 = test system: RXF 393
# UACC-257 = test system: UACC-257
# Malme-3M = test system: Malme-3M
# OVCAR-8 = test system: OVCAR-8
# EKVX = test system: EKVX
# NCI-H460 = test system: NCI-H460
# A549 = test system: A549
# ACHN = test system: ACHN
# SR = test system: SR
# BT-549 = test system: BT-549
# SW-620 = test system: SW-620
# DU-145 = test system: DU-145
# NCI-H522 = test system: NCI-H522
# HL-60 = test system: HL-60
# CCRF-CEM = test system: CCRF-CEM
# MDA-MB-435 = test system: MDA-MB-435
# Hs-578T = test system: Hs-578T
# SK-MEL-28 = test system: SK-MEL-28
# SNB-75 = test system: SNB-75
Compound,GI50 (LOX IMVI),GI50 (RXF 393),GI50 (UACC-257),GI50 (Malme-3M),GI50 (OVCAR-8),GI50 (EKVX),GI50 (NCI-H460),GI50 (A549),GI50 (ACHN),GI50 (SR),GI50 (BT-549),GI50 (SW-620),GI50 (DU-145),GI50 (NCI-H522),GI50 (HL-60),GI50 (CCRF-CEM),GI50 (MDA-MB-435),GI50 (Hs-578T),GI50 (SK-MEL-28),GI50 (SNB-75)
Cc1nnc2sc(-c3ccc(-c4ccccc4Cl)o3)nn12,20.9 µM (inactive),33.8 µM (inactive),44.5 µM (inactive),47.3 µM (inactive),19.8 µM (inactive),33 µM (inactive),35.1 µM (inactive),34.8 µM (inactive),48.4 µM (inactive),19 µM (inactive),24 µM (inactive),20.9 µM (inactive),36.6 µM (inactive),25.4 µM (inactive),19.8 µM (inactive),43.6 µM (inactive),18.9 µM (inactive),55.7 µM (inactive),–,–
Cc1cc(OC(=O)Nc2cccc3ccccc23)c(C(C)C)cc1C(=S)Nc1ccccc1,14.7 µM (inactive),–,18.7 µM (inactive),17.3 µM (inactive),12.7 µM (inactive),23.7 µM (inactive),16.9 µM (inactive),21.8 µM (inactive),24.2 µM (inactive),6.49 µM (inactive),12.1 µM (inactive),16.8 µM (inactive),22.3 µM (inactive),14.1 µM (inactive),2.42 µM (inactive),7.6 µM (inactive),18.1 µM (inactive),12.3 µM (inactive),18 µM (inactive),–
CCSC1=N/C(=C\c2ccc(N(C)C)cc2)C(Cl)=N1,–,25.2 µM (inactive),> 100 µM (inactive),> 100 µM (inactive),> 100 µM (inactive),> 100 µM (inactive),> 100 µM (inactive),> 100 µM (inactive),> 100 µM (inactive),–,> 100 µM (inactive),> 100 µM (inactive),> 100 µM (inactive),> 100 µM (inactive),> 100 µM (inactive),> 100 µM (inactive),> 100 µM (inactive),> 100 µM (inactive),> 100 µM (inactive),> 100 µM (inactive)
CC(=O)/C(=C\Nc1c(C)n(C)n(C)c1=O)C(=O)c1ccccc1,> 50 µM (inactive),> 50 µM (inactive),> 50 µM (inactive),> 50 µM (inactive),–,> 50 µM (inactive),> 50 µM (inactive),> 50 µM (inactive),> 50 µM (inactive),> 50 µM (inactive),> 50 µM (inactive),> 50 µM (inactive),> 50 µM (inactive),> 50 µM (inactive),> 50 µM (inactive),> 50 µM (inactive),> 50 µM (inactive),> 50 µM (inactive),> 50 µM (inactive),–
Cc1ccc(N2C(=O)C3c4[nH]c5ccccc5c4C4CCC(C(C)(C)C)CC4C3C2=O)cc1 (configuration not stated),11.6 µM (inactive),10.4 µM (inactive),13.3 µM (inactive),6.9 µM (inactive),7.71 µM (inactive),13.6 µM (inactive),6.46 µM (inactive),10.1 µM (inactive),6.64 µM (inactive),6.05 µM (inactive),19.2 µM (inactive),> 26.1 µM (inactive),2.48 µM (inactive),11.2 µM (inactive),7.62 µM (inactive),5.36 µM (inactive),16.8 µM (inactive),4.1 µM (inactive),18.3 µM (inactive),–
CC(C)(C)C1CCC2c3c([nH]c4ccccc34)C3C(=O)N(c4ccc5c(c4)C(=O)c4ccccc4C5=O)C(=O)C3C2C1 (configuration not stated),> 100 µM (inactive),> 100 µM (inactive),> 100 µM (inactive),> 100 µM (inactive),> 100 µM (inactive),> 100 µM (inactive),> 100 µM (inactive),> 100 µM (inactive),> 100 µM (inactive),> 100 µM (inactive),> 100 µM (inactive),> 100 µM (inactive),> 100 µM (inactive),> 100 µM (inactive),> 100 µM (inactive),> 100 µM (inactive),> 100 µM (inactive),> 100 µM (inactive),> 100 µM (inactive),–
CCCC[S+]([O-])CCC(N)P(=O)(O)O (configuration not stated),> 100 µM (inactive),–,> 100 µM (inactive),> 100 µM (inactive),> 100 µM (inactive),> 100 µM (inactive),> 100 µM (inactive),> 100 µM (inactive),> 100 µM (inactive),> 100 µM (inactive),> 100 µM (inactive),> 100 µM (inactive),> 100 µM (inactive),> 100 µM (inactive),> 100 µM (inactive),> 100 µM (inactive),> 100 µM (inactive),> 100 µM (inactive),> 100 µM (inactive),> 100 µM (inactive)
O=c1nc(N2CCCCC2)sc2[nH]c3ccccc3c12,74.8 µM (inactive),–,> 100 µM (inactive),68.4 µM (inactive),> 100 µM (inactive),> 100 µM (inactive),98.2 µM (inactive),> 100 µM (inactive),> 100 µM (inactive),> 100 µM (inactive),> 100 µM (inactive),> 100 µM (inactive),> 100 µM (inactive),> 100 µM (inactive),> 100 µM (inactive),–,> 100 µM (inactive),> 100 µM (inactive),> 100 µM (inactive),> 100 µM (inactive)
CN(C)C(=S)S [SODIUM DIMETHYLCARBAMODITHIOATE],34.4 µM (inactive),83.9 µM (inactive),> 100 µM (inactive),> 43.8 µM (inactive),> 52.5 µM (inactive),> 94.6 µM (inactive),4.68 µM (inactive),> 100 µM (inactive),> 71 µM (inactive),–,> 100 µM (inactive),> 59.7 µM (inactive),> 95.7 µM (inactive),0.194 µM (active),1.33 µM (inactive),–,> 78 µM (inactive),> 100 µM (inactive),> 64.4 µM (inactive),> 85.5 µM (inactive)
COC(=O)C1=C(OC)C(=P2(c3ccccc3)CC(c3ccccc3)=C2c2ccccc2)C(C(=O)OC)=C1C(=O)OC (configuration not stated),25.1 µM (inactive),18.1 µM (inactive),> 71.1 µM (inactive),29.9 µM (inactive),> 95.7 µM (inactive),> 91.8 µM (inactive),15 µM (inactive),26.4 µM (inactive),49.8 µM (inactive),–,> 76.6 µM (inactive),14.6 µM (inactive),> 61.2 µM (inactive),2.65 µM (inactive),0.968 µM (active),0.745 µM (active),40.7 µM (inactive),> 100 µM (inactive),> 68.5 µM (inactive),41.6 µM (inactive)
Cc1cn([C@H]2C[C@H](O)[C@@H](CO)O2)c(=O)nc1N,> 100 µM (inactive),–,> 100 µM (inactive),> 100 µM (inactive),> 100 µM (inactive),–,> 100 µM (inactive),> 100 µM (inactive),> 100 µM (inactive),> 100 µM (inactive),> 100 µM (inactive),> 100 µM (inactive),> 100 µM (inactive),> 100 µM (inactive),> 100 µM (inactive),> 100 µM (inactive),> 100 µM (inactive),> 100 µM (inactive),> 100 µM (inactive),> 100 µM (inactive)
CC1=NNC(=O)[C@H]2[C@H]1CCC1[C@@H]2CC[C@]2(C)[C@@H](O)CC[C@@H]12 (some centres not stated),> 100 µM (inactive),> 100 µM (inactive),> 100 µM (inactive),> 100 µM (inactive),> 100 µM (inactive),> 100 µM (inactive),> 100 µM (inactive),> 100 µM (inactive),> 100 µM (inactive),–,> 100 µM (inactive),> 100 µM (inactive),> 100 µM (inactive),> 100 µM (inactive),> 100 µM (inactive),> 100 µM (inactive),> 100 µM (inactive),> 100 µM (inactive),> 100 µM (inactive),12.6 µM (inactive)
O=c1c2cc([N+](=O)[O-])ccc2n2n1Cc1ccccc1CC2,> 100 µM (inactive),> 100 µM (inactive),> 100 µM (inactive),> 100 µM (inactive),> 100 µM (inactive),2.11 µM (inactive),> 100 µM (inactive),> 100 µM (inactive),> 100 µM (inactive),> 100 µM (inactive),> 100 µM (inactive),> 100 µM (inactive),> 100 µM (inactive),> 100 µM (inactive),> 100 µM (inactive),> 100 µM (inactive),> 100 µM (inactive),74.8 µM (inactive),> 100 µM (inactive),–
OC(CCN1CCN(CCOC(c2ccccc2)c2ccccc2)CC1)c1ccc(Br)cc1 (configuration not stated),10 µM (inactive),9.38 µM (inactive),3.47 µM (inactive),11.7 µM (inactive),6.25 µM (inactive),11 µM (inactive),8.11 µM (inactive),14.9 µM (inactive),10.8 µM (inactive),–,13.3 µM (inactive),16.8 µM (inactive),16 µM (inactive),14.3 µM (inactive),10.1 µM (inactive),12.7 µM (inactive),11 µM (inactive),16 µM (inactive),7.69 µM (inactive),12.8 µM (inactive)
C/C(=N\NC(=S)NC1CCCC1)c1ccccn1,< 0.01 µM (active),–,< 0.01 µM (active),0.434 µM (active),< 0.0218 µM (active),< 0.01 µM (active),0.0533 µM (active),0.0991 µM (active),< 0.01 µM (active),< 0.01 µM (active),0.472 µM (active),< 0.01 µM (active),0.9 µM (active),–,< 0.01 µM (active),< 0.01 µM (active),0.578 µM (active),36.6 µM (inactive),3.28 µM (inactive),2.25 µM (inactive)
